The values that follow come from patent US20220169639A1 (priority 2018, published 2022).

The IC50 is the concentration that inhibits the measured activity by half.

Structures are written as SMILES.

The assay concerns HBeAg (surrogate marker for cccDNA) in HepDES19 cells. Nature of the assay: Engineered HepDES19 primary screen assay (HBeAg ELISA). The assay is classed as cell-based, HBV. The note with it: Hepatitis B virus, 120 h, HBeAg in culture supernatant, 5 days incubation, read-out: IC50 (HepDES19 primary screen assay, inhibition of extracellular HBeAg level). From the text: The assay was employed to screen for cccDNA inhibitors. HepDES19 is a cccDNA-producing cell line. In this cell line, HBeAg in the cell culture supernatant as surrogate marker, as HBeAg production depends on cccDNA level and activity. HepDES19 is an engineered cell line which contains a 1.1 unit length HBV genome, and pgRNA transcription from the transgene is controlled by Tetracycline (Tet). In the absence of Tet, pgRNA transcription will be induced, but HBV e antigen (HBeAg) could not be produced from this pgRNA due to very short leader sequence before the HBeAg start codon and the start codon is disrupted. Only after cccDNA is formed, the missing leader sequence and start codon mutation would be restored from the 3′-terminal redundancy of pgRNA, and then HBeAg could be synthesized. Therefore, HBeAg could be used as a surrogate marker for cccDNA (Zhou, T. et al., Antiviral Res. (2006), 72(2), 116-124; Guo, H. et al., J. Virol. (2007), 81(22), 12472-12484).
HepDES19 cells were seeded at 2×10^6 cells per T150 flask and cultured with the culture medium (Dulbecco's Modified Eagle Medium: Nutrient Mixture F-12 [DMEM-F12, Gibco Cat. 11320-82], 10% Fetal Bovine Serum [FBS, Clontech Cat. 631101], 0.1 mM Non-Essential Amino Acids Solution [NEAA, Gibco Cat. 11140-050], 50 μg/mL Penicillin-Streptomycin [PS, Invitrogen Cat. 15140-163], 500 μg/mL Geneticin [G418, Invitrogen Cat. 10131-027]) containing 3 μg/mL Tet (Sigma, Cat. 87128) for 5 days. Cells were then seeded at 4×10^6 cells per T150 in the same culture medium as described above in the absence of Tet for 8 days. Cells were then harvested and frozen at density of 2×10^6 cells per mL. For compound testing, the frozen cells were thawed and seeded into 96-well plates at a density of 6×10^4 cells per well. At 24 hours after seeding, half log serial dilutions of compounds made with Dimethyl sulfoxide (DMSO, Sigma, Cat. D2650) were further diluted with the same culture medium as described above before they were added to the cells to reach desired final compound concentrations and 1% DMSO concentration. Plates were then incubated at 37° C. for another 5 days before measurement of HBeAg level and cell viability. Intracellular HBeAg level were measured with enzyme-linked immunosorbent assay (ELISA) kit (Shanghai Kehua Diagnostic Medical Products Co., Ltd). Cell viability was assessed using Cell Counting Kit-8 (DonJindo, Cat. CK04-20). IC50 values were derived from the dose-response curve using 4 parameter logistic curve fit method.
The compounds of the present invention were tested for their capacity to inhibit extracellular HBeAg level as described herein.
On the technique in general: ELISA stands for enzyme-linked immunosorbent assay.
For `COc1cc(OCCOCCN2CC[C@@H](C(=O)O)C2)c(-c2cc(=O)c3cccc(Cl)c3o2)cc1C` [Example 050, (3R)-1-[2-[2-[2-(8-chloro-4-oxo-chromen-2-yl)-5-methoxy-4-methyl-phenoxy]ethoxy]ethyl]pyrrolidine-3-carboxylic acid], the IC50 was 6.93 µM.
Then `COc1cc(OCCOCCN2CC[C@H](C(=O)O)C2)c(-c2cc(=O)c3cccc(Cl)c3o2)cc1C` [Example 051, (3S)-1-[2-[2-[2-(8-chloro-4-oxo-chromen-2-yl)-5-methoxy-4-methyl-phenoxy]ethoxy]ethyl]pyrrolidine-3-carboxylic acid], with 7.86 µM; and `Cc1ccc(-c2cc(=O)c3cccc(Cl)c3o2)c(OCCNC2CC(C(=O)O)C2)c1` (stereo not drawn) [Example 053, 3-[2-[2-(8-chloro-4-oxo-chromen-2-yl)-5-methyl-phenoxy]ethylamino]cyclobutanecarboxylic acid], with 0.1 µM.
Then `Cc1ccc(-c2cc(=O)c3cccc(Cl)c3o2)c(OCCN2CC(C(=O)O)C2)c1` [Example 054, 1-[2-[2-(8-chloro-4-oxo-chromen-2-yl)-5-methyl-phenoxy]ethyl]azetidine-3-carboxylic acid], with 0.24 µM; and `O=c1cc(-c2ccc(Br)cc2OCCN[C@H]2CC[C@@H](C(=O)O)CC2)oc2c(Cl)cccc12` [Example 055, cis-4-[2-[5-bromo-2-(8-chloro-4-oxo-chromen-2-yl)phenoxy]ethylamino]cyclohexanecarboxylic acid], with 0.98 µM.
Then `O=c1cc(-c2ccc(Br)cc2OCCN[C@H]2CC[C@H](C(=O)O)CC2)oc2c(Cl)cccc12` [Example 056, trans-4-[2-[5-bromo-2-(8-chloro-4-oxo-chromen-2-yl)phenoxy]ethylamino]cyclohexanecarboxylic acid], with 1 µM; and `CC(NCCOc1cc(C(F)(F)F)ccc1-c1cc(=O)c2cccc(Cl)c2o1)C(=O)O` (stereo not drawn) [Example 057, 2-[2-[2-(8-chloro-4-oxo-chromen-2-yl)-5-(trifluoromethyl)phenoxy]ethylamino]propanoic acid], with 1.5 µM.
As for `Cc1ccc(-c2cc(=O)c3cccc(Cl)c3o2)c(OCCNC(C)(C)C(=O)O)c1` [Example 058, 2-[2-[2-(8-chloro-4-oxo-chromen-2-yl)-5-methyl-phenoxy]ethylamino]-2-methyl-propanoic acid], the IC50 was determined as 3.41 µM.
The value for `Cc1cc(-c2cc(=O)c3cccc(Cl)c3o2)c(OCCN2CC(C(=O)O)C2)cc1Cl` [Example 061, 1-[2-[5-chloro-2-(8-chloro-4-oxo-chromen-2-yl)-4-methyl-phenoxy]ethyl]azetidine-3-carboxylic acid] was 5.71 µM; that for `CC(CC(=O)O)NCCCOc1cc(C(F)(F)F)ccc1-c1cc(=O)c2cccc(Cl)c2o1` (stereo not drawn) [Example 062, 3-[3-[2-(8-chloro-4-oxo-chromen-2-yl)-5-(trifluoromethyl)phenoxy]propylamino]butanoic acid] was 2.02 µM; that for `O=C(O)C(CC1CCCCC1)NCCCOc1cc(C(F)(F)F)ccc1-c1cc(=O)c2cccc(Cl)c2o1` (stereo not drawn) [Example 063, 2-[3-[2-(8-chloro-4-oxo-chromen-2-yl)-5-(trifluoromethyl)phenoxy]propylamino]-3-cyclohexyl-propanoic acid] was 4.32 µM.
The value for `CS(=O)(=O)NC(=O)[C@@H]1CCN(CCCOc2cc(C(F)(F)F)ccc2-c2cc(=O)c3cccc(Cl)c3o2)C1` [Example 065, (3R)-1-[3-[2-(8-chloro-4-oxo-chromen-2-yl)-5-(trifluoromethyl)phenoxy]propyl]-N-methylsulfonyl-pyrrolidine-3-carboxamide] was 7.21 µM; that for `O=C(NS(=O)(=O)C1CC1)[C@@H]1CCN(CCCOc2cc(C(F)(F)F)ccc2-c2cc(=O)c3cccc(Cl)c3o2)C1` [Example 067, (3R)-1-[3-[2-(8-chloro-4-oxo-chromen-2-yl)-5-(trifluoromethyl)phenoxy]propyl]-N-cyclopropylsulfonyl-pyrrolidine-3-carboxamide] was 8.4 µM.
Then `CS(=O)(=O)NC(=O)C1CN(CCOc2cc(C(F)(F)F)ccc2-c2cc(=O)c3cccc(Cl)c3o2)CCO1` (stereo not drawn) [Example 068, 4-[2-[2-(8-chloro-4-oxo-chromen-2-yl)-5-(trifluoromethyl)phenoxy]ethyl]-N-methylsulfonyl-morpholine-2-carboxamide], with 5.51 µM.
`CS(=O)(=O)NC(=O)[C@H]1CCN(CCOc2cc(Br)ccc2-c2cc(=O)c3cccc(Cl)c3o2)C1` [Example 069]: the 50% inhibitory concentration (IC50) turned out to be 1.77 µM.
Then `CS(=O)(=O)NC(=O)[C@@H]1CCN(CCOc2cc(C(F)(F)F)ccc2-c2cc(=O)c3cccc(Cl)c3o2)C1` [Example 070, (3R)-1-[2-[2-(8-chloro-4-oxo-chromen-2-yl)-5-(trifluoromethyl)phenoxy]ethyl]-N-methylsulfonyl-pyrrolidine-3-carboxamide], with 1.01 µM.
Then `CS(=O)(=O)NC(=O)[C@H]1CCN(CCOc2cc(C(F)(F)F)ccc2-c2cc(=O)c3cccc(Cl)c3o2)C1` [Example 071, (3S)-1-[2-[2-(8-chloro-4-oxo-chromen-2-yl)-5-(trifluoromethyl)phenoxy]ethyl]-N-methylsulfonyl-pyrrolidine-3-carboxamide], with 1.03 µM; and `O=C(NS(=O)(=O)C1CC1)C1CCCN1CCOc1cc(C(F)(F)F)ccc1-c1cc(=O)c2cccc(Cl)c2o1` (stereo not drawn) [Example 072, 1-[2-[2-(8-chloro-4-oxo-chromen-2-yl)-5-(trifluoromethyl)phenoxy]ethyl]-N-cyclopropylsulfonyl-pyrrolidine-2-carboxamide], with 2.89 µM; and `CS(=O)(=O)NC(=O)C1CCCN1CCOc1cc(Br)ccc1-c1cc(=O)c2cccc(Cl)c2o1` (stereo not drawn) [Example 074, 1-[2-[5-bromo-2-(8-chloro-4-oxo-chromen-2-yl)phenoxy]ethyl]-N-methylsulfonyl-pyrrolidine-2-carboxamide], with 1.03 µM.
Then `O=c1cc(-c2ccc(C(F)(F)F)cc2OCCCNC2CCS(=O)(=O)CC2)oc2c(Cl)cccc12` [Example 078, 8-chloro-2-[2-[3-[(1,1-dioxothian-4-yl)amino]propoxy]-4-(trifluoromethyl)phenyl]chromen-4-one], with 7.8 µM; and `CS(=O)(=O)CCNCCCOc1cc(C(F)(F)F)ccc1-c1cc(=O)c2cccc(Cl)c2o1` [Example 079, 8-chloro-2-[2-[3-(2-methylsulfonylethylamino)propoxy]-4-(trifluoromethyl)phenyl]chromen-4-one], with 0.78 µM.
In the case of `CS(=O)(=O)N1CCN(CCCOc2cc(C(F)(F)F)ccc2-c2cc(=O)c3cccc(Cl)c3o2)CC1` [Example 081, 8-chloro-2-[2-[3-(4-methylsulfonylpiperazin-1-yl)propoxy]-4-(trifluoromethyl)phenyl]chromen-4-one], the half-maximal inhibitory concentration (IC50) amounted to 7.11 µM.
The value for `NC(=O)C1CCN(CCOc2cc(Br)ccc2-c2cc(=O)c3cccc(Cl)c3o2)C1` (stereo not drawn) [Example 083, 1-[2-[5-bromo-2-(8-chloro-4-oxo-chromen-2-yl)phenoxy]ethyl]pyrrolidine-3-carboxamide] was 0.56 µM; that for `NC(=O)C1CSCCN1CCOc1cc(Br)ccc1-c1cc(=O)c2cccc(Cl)c2o1` (stereo not drawn) [Example 085, 4-[2-[5-bromo-2-(8-chloro-4-oxo-chromen-2-yl)phenoxy]ethyl]thiomorpholine-3-carboxamide] was 1.08 µM; that for `O=c1cc(-c2ccc(C(F)(F)F)cc2OCC(O)CNS(=O)(=O)C2CC2)oc2c(Cl)cccc12` (stereo not drawn) [Example 086, N-[3-[2-(8-chloro-4-oxo-chromen-2-yl)-5-(trifluoromethyl)phenoxy]-2-hydroxy-propyl]cyclopropanesulfonamide] was 3.22 µM.
In the case of `O=c1cc(-c2ccc(Br)cc2OCCOCCN2CCOCC2)oc2c(Cl)cccc12` [Example 090, 2-[4-bromo-2-[2-(2-morpholinoethoxy)ethoxy]phenyl]-8-chloro-chromen-4-one], the IC50 amounted to 1.3 µM.
The value for `Cc1ccc(-c2cc(=O)c3cccc(Cl)c3o2)c(OCCN2CCNC2=O)c1` [Example 091, 1-[2-[2-(8-chloro-4-oxo-chromen-2-yl)-5-methyl-phenoxy]ethyl]imidazolidin-2-one] was 2.83 µM.
